{
  "source": "ChEMBL document CHEMBL3045524",
  "about": "“Development of a new acaricide, cyflumetofen” (J Pestic Sci, 2012)",
  "key": {"[1]": {"experiment": "Octanol-water partition co-efficient, log P of the compound", "type": "physicochemical"}, "Tetranychus kanzawai": {"tested_on": "Tetranychus kanzawai", "experiment": "Acaricidal activity against Tetranychus kanzawai at developmental stages", "type": "functional"}, "Tetranychus urticae [2]": {"tested_on": "Tetranychus urticae", "experiment": "Acaricidal activity against Tetranychus urticae (two-spotted spider mite) larvae", "type": "functional"}, "Panonychus citri": {"tested_on": "Panonychus citri", "experiment": "Acaricidal activity against Panonychus citri at developmental stages", "type": "functional"}, "Tetranychus urticae [3]": {"tested_on": "Tetranychus urticae", "experiment": "Acaricidal activity against Tetranychus urticae (two-spotted spider mite) adult", "type": "functional"}, "[4]": {"experiment": "Solubility of the compound in water", "type": "physicochemical"}},
  "data": [
    {"smiles": "COCCOC(=O)C(C#N)(C(=O)c1ccccc1C(F)(F)F)c1ccc(C(C)(C)C)cc1", "note": "(racemic) [CYFLUMETOFEN]", "values": [
      {"measurement": "logP", "setting": "[1]", "value": 4.3},
      {"measurement": "LC50", "setting": "Tetranychus kanzawai", "value": "< 5", "unit": "µg/mL"},
      {"measurement": "LC50", "setting": "Tetranychus urticae [2]", "value": 0.9, "unit": "µg/mL"},
      {"measurement": "LC50", "setting": "Panonychus citri", "value": "< 5", "unit": "µg/mL"},
      {"measurement": "LC50", "setting": "Tetranychus urticae [3]", "value": 4.8, "unit": "µg/mL"},
      {"measurement": "solubility", "setting": "[4]", "value": 0.0281, "unit": "µg/mL"}
    ]}
  ]
}
